The test has as its target Prostacyclin receptor (Homo sapiens) (UniProt P43119). As to the kind of experiment: Positive allosteric modulation of human prostacyclin receptor expressed in CHOK1 cells assessed as increase in PGI2-induced cAMP production by measuring 2 fold leftward shift in PGI2 concentration response curve measured after 1 hr. Format: functional, cell-based. (cAMP levels reflect the balance of adenylyl cyclase and phosphodiesterase activity.)

The structures appear in SMILES notation.

Chain of Prostacyclin receptor (Homo sapiens) (P43119 whole entry): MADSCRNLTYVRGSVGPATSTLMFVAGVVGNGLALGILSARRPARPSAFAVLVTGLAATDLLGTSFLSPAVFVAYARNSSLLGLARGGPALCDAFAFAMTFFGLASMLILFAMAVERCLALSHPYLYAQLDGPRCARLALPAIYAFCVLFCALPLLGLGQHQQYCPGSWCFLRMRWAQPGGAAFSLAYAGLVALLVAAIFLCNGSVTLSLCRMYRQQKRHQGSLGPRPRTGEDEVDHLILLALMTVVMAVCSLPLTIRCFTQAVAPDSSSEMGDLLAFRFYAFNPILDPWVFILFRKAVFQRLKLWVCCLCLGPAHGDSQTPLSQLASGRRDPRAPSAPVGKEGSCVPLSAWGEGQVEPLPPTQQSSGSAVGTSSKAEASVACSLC

`CC(C)(C)n1nnnc1[C@@H](c1ccccc1)N1CCc2ccccc2C1`: the Activity is 3.1 µM.

Values taken from ChEMBL document CHEMBL4028843, “Synthesis of both enantiomers of 1,2,3,4-tetrahydroisoquinoline derivative IPPAM-1 and enantio-dependency of its positive allosteric modulation of prostacyclin receptor” (Bioorg Med Chem Lett, 2017).
